Test results: patent US20200216416A1, “QUINOLINE COMPOUNDS AS INHIBITORS OF TAM AND MET KINASES” (Array BioPharma Inc., priority 2019, published 2020)
pIC50: −log10 of the molar value. Like-named read-outs stand apart in the source and are kept apart here.

What was measured:
[1] = target: T1, His-tagged recombinant human AXL cytoplasmic domain (Homo sapiens, UniProt P30530); test: AXL Enzyme Assay (LanthaScreen Eu Kinase Binding); conditions: averaged IC50; 60-minute incubation at 22° C.; TR-FRET
T1 construct: His-tagged recombinant human AXL cytoplasmic domain
T1 sequence (P30530 473-894 limits assumed): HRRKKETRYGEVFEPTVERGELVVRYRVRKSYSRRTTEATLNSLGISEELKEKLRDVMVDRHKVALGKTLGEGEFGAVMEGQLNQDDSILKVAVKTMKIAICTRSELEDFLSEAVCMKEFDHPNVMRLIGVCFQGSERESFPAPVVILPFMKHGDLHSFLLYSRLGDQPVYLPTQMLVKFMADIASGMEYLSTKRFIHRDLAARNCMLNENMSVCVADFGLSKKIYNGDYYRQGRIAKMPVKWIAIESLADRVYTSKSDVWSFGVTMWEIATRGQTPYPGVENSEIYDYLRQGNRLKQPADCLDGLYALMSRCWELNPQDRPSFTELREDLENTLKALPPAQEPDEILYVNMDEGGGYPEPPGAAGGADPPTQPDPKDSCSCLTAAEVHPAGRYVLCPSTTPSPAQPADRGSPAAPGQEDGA
How it was run: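 TR-FRET binding-displacement format: 20 nM Alexa Fluor Tracer 236, 2 nM biotin-anti-His and 2 nM Eu-streptavidin in 25 mM HEPES pH 7.4, 10 mM MgCl2, 0.01% Triton X-100, 2% DMSO. After 60 min at 22 °C, ratiometric percent of control was fitted to a 4-parameter logistic curve, IC50 taken at 50 POC.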

MDR1 (P-gp) = target: T2, MDR1 (P-gp) (Homo sapiens, UniProt P08183); test: MDR1 LLC-PK1 permeability assay; type: in vitro ADME; conditions: pig, MDR1 transfected LLC-PK1 cells; for Papp at 2 h, 1 μM: permeability coefficient (Papp)
T2 construct: expressed in transfected cells; host or cells: LLC-PK1
T2 sequence (P08183 whole entry): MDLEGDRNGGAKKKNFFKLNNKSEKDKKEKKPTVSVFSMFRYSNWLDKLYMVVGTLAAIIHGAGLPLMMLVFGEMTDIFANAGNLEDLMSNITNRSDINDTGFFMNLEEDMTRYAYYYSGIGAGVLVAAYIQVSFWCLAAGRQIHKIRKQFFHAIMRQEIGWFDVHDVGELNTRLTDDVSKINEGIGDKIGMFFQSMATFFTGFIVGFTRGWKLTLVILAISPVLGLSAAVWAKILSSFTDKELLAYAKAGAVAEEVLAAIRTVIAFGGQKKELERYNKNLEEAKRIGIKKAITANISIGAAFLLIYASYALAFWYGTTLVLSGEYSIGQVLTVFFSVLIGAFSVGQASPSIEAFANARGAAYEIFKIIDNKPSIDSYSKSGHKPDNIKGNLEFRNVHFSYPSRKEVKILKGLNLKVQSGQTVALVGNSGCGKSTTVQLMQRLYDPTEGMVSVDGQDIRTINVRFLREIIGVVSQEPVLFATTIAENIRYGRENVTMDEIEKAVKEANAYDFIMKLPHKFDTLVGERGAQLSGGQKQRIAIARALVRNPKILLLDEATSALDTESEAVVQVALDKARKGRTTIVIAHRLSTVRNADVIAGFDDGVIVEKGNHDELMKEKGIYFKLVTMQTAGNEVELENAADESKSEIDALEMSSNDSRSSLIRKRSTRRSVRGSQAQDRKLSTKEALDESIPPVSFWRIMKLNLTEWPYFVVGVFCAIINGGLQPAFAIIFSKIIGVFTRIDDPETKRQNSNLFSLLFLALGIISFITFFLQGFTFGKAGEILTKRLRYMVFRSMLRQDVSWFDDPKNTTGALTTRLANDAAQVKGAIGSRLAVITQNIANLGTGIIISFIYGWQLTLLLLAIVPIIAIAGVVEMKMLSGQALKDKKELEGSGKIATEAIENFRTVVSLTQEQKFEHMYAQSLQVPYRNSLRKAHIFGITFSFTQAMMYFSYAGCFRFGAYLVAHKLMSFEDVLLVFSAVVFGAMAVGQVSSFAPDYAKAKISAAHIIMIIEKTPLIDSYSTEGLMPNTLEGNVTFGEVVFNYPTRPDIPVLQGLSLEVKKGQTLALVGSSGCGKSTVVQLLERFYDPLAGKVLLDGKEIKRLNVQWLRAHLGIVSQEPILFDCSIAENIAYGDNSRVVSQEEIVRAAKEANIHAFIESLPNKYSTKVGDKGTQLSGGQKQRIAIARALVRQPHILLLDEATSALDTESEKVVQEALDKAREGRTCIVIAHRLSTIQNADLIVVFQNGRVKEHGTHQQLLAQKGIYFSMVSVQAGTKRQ
How it was run: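 MDR1-transfected LLC-PK1 monolayers dosed at 1 μM test article (1% organic) in A→B and B→A directions, in triplicate, for 2 h at 37 °C; lucifer yellow monitored monolayer integrity. Compound measured by LC-MS/MS against labetalol internal standard; Papp averaged per replicate, efflux ratio = Papp(B−A)/Papp(A−B).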

[2] = LLC-PK1, efflux ratio = Papp(B-A)/Papp(A-B), read-out: MDR1 Pe Ratio
[3] = LLC-PK1, Papp(B−A)/Papp(A−B), test article 1 μM, 2 hours, 37° C., read-out: Efflux ratio

Row | SMILES | pIC50 [1] | efflux ratio at 2 h, 1 μM (MDR1 (P-gp); [2]) | Papp at 2 h, 1 μM (MDR1 (P-gp)) | efflux ratio at 2 h, 1 μM (MDR1 (P-gp); [3])
1 | COc1cc2nccc(Oc3ccc(NC(=O)c4cn(CCN(C)C)cc(-c5ccc(F)cc5)c4=O)nc3)c2cc1OC [Example 46] | 9.00 | 13 | 2 ×10⁻⁶ cm/s | –
2 | COc1ccc2nccc(Oc3ccc(NC(=O)c4cn(CCN(C)C)cc(-c5ccc(F)cc5)c4=O)nc3)c2c1 [Example 47] | 9.00 | 9.3 | – | –
3 | COc1cc2c(Oc3ccc(NC(=O)c4cn(C(C)C)c(C)c(-c5ccc(F)cc5)c4=O)nc3)ccnc2cc1F [Example 48, N-(5-((7-fluoro-6-methoxyquinolin-4yl)oxy)pyridin-2-yl)-5-(4-fluorophenyl)-1-isopropyl-6-methyl-4-oxo-1,4-dihydropyridine-3-carboxamide] | 8.70 | 1.6 | 15 ×10⁻⁶ cm/s | 3.5
4 | COc1cc2c(Oc3ccc(NC(=O)c4cn(C(C)C)cc(-c5ccc(F)cc5)c4=O)nc3)ccnc2cc1F [Example 49, N-(5-((7-fluoro-6-methoxyquinolin-4yl)oxy)pyridin-2-yl)-5-(4-fluorophenyl)-1-isopropyl-4-oxo-1,4-dihydropyridine-3-carboxamide] | 9.00 | 0.99 | 4 ×10⁻⁶ cm/s | 3.5
5 | CC(C)n1cc(C(=O)Nc2ccc(Oc3ccnc4cc(OC(F)(F)F)ccc34)cn2)c(=O)c(-c2ccc(F)cc2)c1 [Example 50, 5-(4-fluorophenyl)-1-isopropyl-4-oxo-N-(5-((7-(trifluoromethoxy)quinolin-4-yl)oxy)pyridin-2-yl)-1,4-dihydropyridine-3-carboxamide] | 7.80 | 4.7 | < 1 ×10⁻⁶ cm/s | –
6 | CCOc1ccc2nccc(Oc3ccc(NC(=O)c4cn(C(C)C)cc(-c5ccc(F)cc5)c4=O)nc3)c2c1 [Example 51, N-(5-((6-ethoxyquinolin-4-yl)oxy)pyridin-2-yl)-5-(4-fluorophenyl)-1-isopropyl-4-oxo-1,4-dihydropyridine-3-carboxamide] | 8.30 | 2 | 3 ×10⁻⁶ cm/s | 3.5
7 | CCOc1ccc2c(Oc3ccc(NC(=O)c4cn(C(C)C)cc(-c5ccc(F)cc5)c4=O)nc3)ccnc2c1 [Example 52, N-(5-((7-ethoxyquinolin-4-yl)oxy)pyridin-2-yl)-5-(4-fluorophenyl)-1-isopropyl-4-oxo-1,4-dihydropyridine-3-carboxamide] | 8.40 | 1.8 | 2 ×10⁻⁶ cm/s | 3.5
8 | COc1cc2nc(C)cc(Oc3ccc(NC(=O)c4cn(C(C)C)cc(-c5ccc(F)cc5)c4=O)nc3)c2cc1OC [Example 53, N-(5-((6,7-dimethoxy-2-methylquinolin-4-yl)oxy)pyridin-2-yl)-5-(4-fluorophenyl)-1-isopropyl-4-oxo-1,4-dihydropyridine-3-carboxamide] | 6.35 | 3.4 | 5 ×10⁻⁶ cm/s | –
9 | COc1cc2nccc(Oc3cnc(NC(=O)c4cn(C(C)C)cc(-c5ccc(F)cc5)c4=O)nc3)c2cc1OC [Example 54, N-(5-((6,7-dimethoxyquinolin-4-yl)oxy)pyrimidin-2-yl)-5-(4-fluorophenyl)-1-isopropyl-4-oxo-1,4-dihydropyridine-3-carboxamide] | 8.30 | 114 | 12 ×10⁻⁶ cm/s | –
10 | COc1cc2nccc(Oc3cnc(NC(=O)c4cn(C(C)C)c(C)c(-c5ccc(F)cc5)c4=O)nc3)c2cc1OC [Example 55, N-(5-((6,7-dimethoxyquinolin-4-yl)oxy)pyrimidin-2-yl)-5-(4-fluorophenyl)-1-isopropyl-6-methyl-4-oxo-1,4-dihydropyridine-3-carboxamide] | 8.70 | 144 | 8 ×10⁻⁶ cm/s | –
11 | COc1cc2c(Oc3ccc(NC(=O)c4cn(C(C)C)cc(-c5ccc(F)cc5)c4=O)nc3)ccnc2cc1OCCCN1CCOCC1 [Example 56, 5-(4-fluorophenyl)-1-isopropyl-N-(5-((6-methoxy-7-(3-morpholinopropoxy)quinolin-4-yl)oxy)pyridin-2-yl)-4-oxo-1,4-dihydropyridine-3-carboxamide] | 8.52 | 20 | < 1 ×10⁻⁶ cm/s | –
12 | COc1cc2ncc(C#N)c(Oc3ccc(NC(=O)c4cn(C(C)C)cc(-c5ccc(F)cc5)c4=O)nc3)c2cc1OC [Example 57, N-(5-((3-cyano-6,7-dimethoxyquinolin-4-yl)oxy)pyridin-2-yl)-5-(4-fluorophenyl)-1-isopropyl-4-oxo-1,4-dihydropyridine-3-carboxamide] | 7.92 | 2.5 | 15 ×10⁻⁶ cm/s | 3.5
13 | COc1cc2nccc(Oc3ccc(NC(=O)c4cn(C(C)C)cc(-c5ccc(F)cc5)c4=O)cn3)c2cc1OC [Example 58, N-(6-((6,7-dimethoxyquinolin-4-yl)oxy)pyridin-3-yl)-5-(4-fluorophenyl)-1-isopropyl-4-oxo-1,4-dihydropyridine-3-carboxamide] | 9.00 | 3 | 10 ×10⁻⁶ cm/s | 3.5
